Read-outs that look alike come from different tables or passages of the source.
Legend:
MEK1 = target: T1, MEK1 (Homo sapiens, UniProt Q02750); experiment: MEK1 kinase cascade assay (ADP-Glo), inhibition of MEK1 kinase activity; format: biochemical
T1 construct: purchased SignalChem M02-14H
Summary of the method: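 Compounds were preincubated 20 mins at 25° C with 25 nM BRAF(445-723) in 10 mM HEPES pH 7.5, 5 mM MgCl2, 2 mM CHAPS, 1 mM DTT, then 6.25 nM MEK1, 0.5 μM ERK1 and 1 mM ATP were added for 1 hr at 25° C, with 1% DMSO. ADP-Glo luminescence was normalized to DMSO and 1 μM Trametinib; IC50 came from 4-parameter fits of duplicates.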

BRAF-MEK1 = experiment: BRAF-MEK TR-FRET assay, stabilization of MEK1 and BRAF interaction; format: binding; settings: read-out: BRAF-MEK TR-FRET Assay (EC50, fold stabilization)
Summary of the method: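 His-MEK1 (full-length, E. coli) at 10 nM with GST-BRAF at 4 nM, 1 h at 25° C in pH 7.5 Tris buffer with 5 mM MgCl2 and 100 μM ATP; anti-His-Tb/anti-GST-XL665 added for 1 h more. 665/620 FRET ratio over DMSO gives fold stabilization; EC50 from 4-parameter fit, duplicate wells.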

p-ERK1/2 in HCT116 cells = experiment: AlphaLISA p-ERK assay, cellular inhibition of ERK phosphorylation in HCT116 cells; format: cell-based; settings: Homo sapiens, HCT-116, 2 hours treatment, PMA stimulation 30 mins
Method: Cell culture: HCTI 16, HT-29, and NCI-H292 cells were acquired from American Type Culture Collection (ATCC). HCT116 and HT-29 cells were maintained in ATCC-formulated McCoy's 5a Medium Modified supplemented with 10% fetal bovine serum, NCI-H292 cells were cultured in ATCC formulated RPMI-1640 supplemented with 10% fetal bovine serum. All cells were maintained at 37° C., 5% CO2.
Efficacy of exemplary compounds in cellular inhibition of ERK phosphorylation: Phosphorylation status of ERK1/2 (p-ERK) was used as a readout for inhibition of BRAF-MEK pathway. p-ERK was detected using an immunoassay for quantitative detection of phospho-ERK 1/2 (phosphorylated on Thr202/Tyr204 in ERK1, or Thr185/Tyr187 in ERK2), such as the AlphaLISA® SureFire® Ultra™ p-ERK1/2 (Thr202/Tyr204) kit (Perkin Elmer). HCT116 cells were plated at 10,000 cells per well in 384-well TC-treated plates (Coming). Cells were plated for 24 hours, the medium was then aspirated and cells were treated with vehicle (DMSO) or test compounds (0.1% DMSO in final volume) prepared in serum free, phenol red free medium for 2 hours. Following treatment, cells were stimulated with PMA (1.25 μM/well) for 30 mins after which the medium was aspirated, and the cells were lysed for 10 mins with 1× lysis buffer supplemented with Halt Protease and Phosphatase Inhibitor Cocktail (Thermo Fisher). The lysate was transferred to a 384 well Alpha-plate (PerkinElmer) and incubated for 1 hour with acceptor bead mix followed by 1 hour incubation with donor bead mix. After incubation, the plate was read on a Cytation5 microplate reader (Agilent). % inhibition as a function of compound concentration from 3 replicate wells was fit with a 4-parameter logistic curve using GraphPad Prism or CDD Vault to derive IC50 values.
In this table, for the BRAF ADP Glo kinase assay, “A” indicates IC50 of less than 5 nM; “B” indicates IC50 of between 5 nM to 50 nM; and “C” indicates IC50 of between 50 nM to 500 nM. “D” indicates IC50 of greater than 500 nM. For the BRAF-MEK TR-FRET assay, “A” indicates EC50 of less than 50 nM; “B” indicates EC50 of between 50 nM to 200 nM; and “C” indicates EC50 of between 200 nM to 1 μM. “D′” indicates EC50 of greater than 1 μM. For the AlphaLisa P-ERK assay, “A” indicates IC50 of less than 1 nM; “B” indicates IC50 of between 1 nM to 10 nM; and “C” indicates IC50 of between 10 nM to 100 nM. “D” indicates IC50 of greater than 100 nM. For the cell viability assay, “A” indicates IC50 of less than 1 nM; “B” indicates IC50 of between 1 nM to 10 nM; and “C” indicates IC50 of between 10 nM to 100 nM. “D” indicates IC50 of greater than 100 nM.

NCI-H292 cells = experiment: Cell viability assay (CellTiter-Glo), NCI-H292; format: cell-based; settings: Homo sapiens, 72 hrs, read-out: Cell Viability Assay: IC50 Determination NCI-H292
Summary of the method: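 Cells seeded at 2,000 per well in RPMI-1640 with 10% FBS, treated 24 h later with compound (0.1% DMSO) for 72 h. Viability read by CellTiter-Glo luminescence; IC50 from 4-parameter logistic fit of % inhibition over 3 replicate wells.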

[1] = 25 nM BRAF, 6.25 nM MEK1, 0.5 μM ERK, 1 mM ATP, 20 min preincubation, 1 hr at 25° C., read-out: BRAF ADP Glo kinase assay V3 (IC50)
[2] = 4 nM BRAF, 10 nM MEK, 100 μM ATP, 1 hr at 25° C.

T1 sequence (Q02750 whole entry): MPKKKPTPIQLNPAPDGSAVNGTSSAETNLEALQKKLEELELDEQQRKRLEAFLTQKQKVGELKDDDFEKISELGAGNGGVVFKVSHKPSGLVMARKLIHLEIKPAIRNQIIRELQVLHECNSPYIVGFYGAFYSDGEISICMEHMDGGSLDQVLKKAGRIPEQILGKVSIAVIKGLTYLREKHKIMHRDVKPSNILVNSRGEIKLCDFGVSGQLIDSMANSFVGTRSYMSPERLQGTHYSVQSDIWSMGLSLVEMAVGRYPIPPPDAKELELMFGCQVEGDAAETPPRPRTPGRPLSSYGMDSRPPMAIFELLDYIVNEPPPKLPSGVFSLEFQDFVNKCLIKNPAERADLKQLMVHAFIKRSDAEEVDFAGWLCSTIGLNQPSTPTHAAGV
T1 sequence (P15056 445-723 partner limits assumed): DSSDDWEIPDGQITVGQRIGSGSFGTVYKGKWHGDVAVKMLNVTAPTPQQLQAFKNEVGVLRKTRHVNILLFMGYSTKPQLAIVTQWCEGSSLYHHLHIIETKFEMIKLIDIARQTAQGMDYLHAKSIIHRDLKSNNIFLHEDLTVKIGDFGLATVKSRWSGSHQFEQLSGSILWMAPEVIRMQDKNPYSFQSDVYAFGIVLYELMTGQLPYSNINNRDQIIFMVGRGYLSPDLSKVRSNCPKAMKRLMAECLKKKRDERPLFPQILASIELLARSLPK

| Compound | IC50 (MEK1; [1]) [nM] | EC50 (BRAF-MEK1; [2]) [nM] | IC50 (p-ERK1/2 in HCT116 cells) [nM] | IC50 (NCI-H292 cells) [nM] | IC50 (MEK1; BRAF ADP Glo kinase assay V3 (IC50)) [nM] | EC50 (BRAF-MEK1; 60 min) [nM] |
| --- | --- | --- | --- | --- | --- | --- |
| CNS(=O)(=O)Nc1cccc(CN2C(=O)Oc3cc(Oc4cccnn4)ccc3[C@@H]2C)c1F (single isomer, unassigned) [Compound 72, (R)-3-({2-fluoro-3-(methylsulfamoyl)amino]phenyl}methyl)-4-methyl-7-(pyridazin-3-yloxy)-3,4-dihydro-2H-1,3-benzoxazin-2-one or (S)-3-({2-fluoro-3-(methylsulfamoyl)amino]phenyl}methyl)-4-methyl-7-(pyridazin-3-yloxy)-3,4-dihydro-2H-1,3-benzoxazin-2-one] | 5 to 50 | 50 to 200 | 1 to 10 | 1 to 10 |  |  |
| CNS(=O)(=O)Nc1nccc(CN2Cc3ccc(Oc4nccnn4)cc3OC2=O)c1F [Compound 164, 3-{[3-fluoro-2-(methylaminosulfonylamino)-4-pyridyl]methyl}-7-(1,2,4-triazin-3-yloxy)-3,4-dihydro-2H-1,3-benzoxazin-2-one] | 5 to 50 | < 50 | 10 to 100 | < 1 |  |  |
| CNS(=O)(=O)Nc1cccc(CN2Cc3cc(Cl)c(OC(=O)N(C)C)cc3OC2=O)c1F [Compound 149, 6-chloro-3-(2-fluoro-3-((N-methylsulfamoyl)amino)benzyl)-2-oxo-3,4-dihydro-2H-benzo[e][1,3]oxazin-7-yl dimethylcarbamate] |  |  | 1 to 10 | 1 to 10 | < 5 | 50 to 200 |
| CNS(=O)(=O)Nc1cccc(CN2Cc3ccc(OC(=O)N(C)C)c(F)c3OC2=O)c1F [Compound 131, 8-fluoro-3-(2-fluoro-3-((N-methylsulfamoyl)amino)benzyl)-2-oxo-3,4-dihydro-2H-benzo[e][1,3]oxazin-7-yl dimethylcarbamate] | < 5 | 50 to 200 | 1 to 10 | 1 to 10 |  |  |
| CNS(=O)(=O)Nc1cccc(CN2Cc3c(F)cc(Oc4ncccn4)cc3OC2=O)c1F [Compound 117] | 5 to 50 | 200 to 1000 | 1 to 10 | 10 to 100 |  |  |
| CN(C)S(=O)(=O)Nc1cccc(CN2C(=O)Oc3c(ccc(Oc4cccnn4)c3F)C23COC3)c1F [Compound 40, 3-({3-[(dimethylsulfamoyl)amino]-2-fluorophenyl}methyl)-8-fluoro-7-(pyridazin-3-yloxy)-2,3-dihydrospiro[1,3-benzoxazine-4,3′-oxetan]-2-one] | 5 to 50 | 50 to 200 | 10 to 100 | 1 to 10 |  |  |
| CNS(=O)(=O)Nc1cccc(CN2C(=O)Oc3c(ccc(Oc4cccnn4)c3F)[C@@H]2C)c1F (single isomer, unassigned) [Compound 35] | < 5 | 50 to 200 | 10 to 100 | 10 to 100 |  |  |
| CNS(=O)(=O)Nc1cccc(CN2C(=O)Oc3cc(OC(=O)N(C)C)ccc3C23COC3)c1F [Compound 115, 3-({2-fluoro-3-[(methylsulfamoyl)amino]phenyl}methyl)-2-oxo-2,3-dihydrospiro[1,3-benzoxazine-4,3′-oxetan]-7-yl N,N-dimethylcarbamate] | < 5 | 50 to 200 | 1 to 10 | < 1 |  |  |
| O=C1Oc2cc(Oc3cccnn3)c(F)cc2C2(COC2)N1Cc1cccc(NS(=O)(=O)C2CC2)c1F [Compound 53, N-(2-fluoro-3-{[6-fluoro-2-oxo-7-(pyridazin-3-yloxy)-2,3-dihydrospiro[1,3-benzoxazine-4,3′-oxetan]-3-yl]methyl}phenyl)cyclopropanesulfonamide] | 5 to 50 | 50 to 200 | 10 to 100 | 1 to 10 |  |  |
| CNS(=O)(=O)Nc1cccc(CN2C(=O)Oc3cc(Oc4cccnn4)c(F)cc3[C@H]2C)c1F (single isomer, unassigned) [Compound 67] | 5 to 50 | 200 to 1000 | 1 to 10 | 1 to 10 |  |  |
| CNS(=O)(=O)Nc1cccc(CN2C(=O)Oc3cc(Oc4cccnn4)cc(F)c3C23COC3)c1F [Compound 63] | 5 to 50 | 50 to 200 | 1 to 10 | 1 to 10 |  |  |
| [2H]C1([2H])c2ccc(Oc3cccnn3)cc2OC(=O)N1Cc1cccc(NS(=O)(=O)NC)c1F [Compound 52, 3-{[2-fluoro-3-(methylaminosulfonylamino)phenyl]methyl}-7-(3-pyridazinyloxy)(4,4-^2H2)-3,4-dihydro-2H-1,3-benzoxazin-2-one] | 5 to 50 | 50 to 200 | 1 to 10 | 1 to 10 |  |  |
| CNS(=O)(=O)Nc1cccc(CN2C(=O)Oc3c(ccc(Oc4ncco4)c3F)C23COC3)c1F [Compound 82] | < 5 | 200 to 1000 | 1 to 10 | 1 to 10 |  |  |
| CNS(=O)(=O)Nc1cccc(CN2C(=O)Oc3cc(Oc4cccnn4)ccc3C23CCC3)c1F [Compound 41, 3-({2-fluoro-3-[(methylsulfamoyl)amino]phenyl}methyl)-7-(pyridazin-3-yloxy)-2,3-dihydrospiro[1,3-benzoxazine-4,1′-cyclobutan]-2-one] | < 5 | < 50 | 1 to 10 | 1 to 10 |  |  |
| CNS(=O)(=O)Nc1cccc(CN2C(=O)Oc3c(ccc(Oc4cccnn4)c3F)C23COC3)c1F [Compound 42] | < 5 | 50 to 200 | 1 to 10 | 1 to 10 |  |  |
| CNS(=O)(=O)Nc1cccc(CN2Cc3c(F)cc(OC(=O)N(C)C)cc3OC2=O)c1F [Compound 118, 5-fluoro-3-(2-fluoro-3-((N-methylsulfamoyl)amino)benzyl)-2-oxo-3,4-dihydro-2H-benzo[e][1,3]oxazin-7-yl dimethylcarbamate] | < 5 | 50 to 200 | 1 to 10 | < 1 |  |  |
| CNS(=O)(=O)Nc1cccc(CN2Cc3ccc(Oc4ncco4)cc3OC2=O)c1F [Compound 80, 3-({2-fluoro-3-[(methylsulfamoyl)amino]phenyl}methyl)-7-(1,3-oxazol-2-yloxy)-3,4-dihydro-2H-1,3-benzoxazin-2-one] | 5 to 50 | 200 to 1000 | 10 to 100 | 1 to 10 |  |  |
| CNS(=O)(=O)Nc1cccc(CN2C(=O)Oc3cc(Oc4cccnn4)cc(F)c3[C@H]2C)c1F (single isomer, unassigned) [Compound 57] | 5 to 50 | 50 to 200 | 1 to 10 | 1 to 10 |  |  |
| CNS(=O)(=O)Nc1cccc(CN2C(=O)Oc3cc(Oc4cccnn4)c(F)cc3[C@@H]2C)c1F (single isomer, unassigned) [Compound 66] | < 5 | 200 to 1000 | 1 to 10 | 1 to 10 |  |  |
| CNS(=O)(=O)Nc1cccc(CN2C(=O)Oc3cc(Oc4cccnn4)ccc3[C@H]2C)c1F (single isomer, unassigned) [Compound 71] | 5 to 50 | 200 to 1000 | 10 to 100 | 1 to 10 |  |  |
